Results as given in PubChem BioAssay AID2060609 (Molecular Pharmacology Branch, DTP, NCI, 2025).
Several values for one entry are separate records, joined by “and”; a condition that tells them apart may be missing. Equal entries are not always repeated.

Test system: 855422-203-R-J1-PDC complex spheroids, viability
Experiment: Anticancer human tumor 855422-203-R-J1-PDC patient-derived bladder carcinoma cell line growth inhibition [CLK]
Settings: for viability, T/C: stronger effect = lower value
Outline: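 Multi-cell-type spheroids combined patient-derived tumor cells with HUVEC endothelial cells and human mesenchymal stem cells. Paired agents were dosed in half-log steps down from about clinical Cmax, or from 10 microM where Cmax was unknown.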

[1] = curve of first compound, second compound 0.0316 µM
[2] = curve of first compound, second compound 0.1 µM
[3] = curve of first compound, second compound 0.316 µM
[4] = curve of first compound, second compound 1 µM
[5] = curve of first compound, second compound 3.16 µM
[6] = curve of first compound, second compound 10 µM
[7] = second compound 0.0316 µM, first compound 0.0316 µM
[8] = second compound 0.0316 µM, first compound 0.1 µM
[9] = second compound 0.0316 µM, first compound 0.316 µM
[10] = second compound 0.0316 µM, first compound 1 µM
[11] = second compound 0.0316 µM, first compound 3.16 µM
[12] = second compound 0.0316 µM, first compound 10 µM
[13] = second compound 0.1 µM, first compound 0.0316 µM
[14] = second compound 0.1 µM, first compound 0.1 µM
[15] = second compound 0.1 µM, first compound 0.316 µM
[16] = second compound 0.1 µM, first compound 1 µM
[17] = second compound 0.1 µM, first compound 3.16 µM
[18] = second compound 0.1 µM, first compound 10 µM
[19] = second compound 0.316 µM, first compound 0.0316 µM
[20] = second compound 0.316 µM, first compound 0.1 µM
[21] = second compound 0.316 µM, first compound 0.316 µM
[22] = second compound 0.316 µM, first compound 1 µM
[23] = second compound 0.316 µM, first compound 3.16 µM
[24] = second compound 0.316 µM, first compound 10 µM
[25] = second compound 1 µM, first compound 0.0316 µM
[26] = second compound 1 µM, first compound 0.1 µM
[27] = second compound 1 µM, first compound 0.316 µM
[28] = second compound 1 µM, first compound 1 µM
[29] = second compound 1 µM, first compound 3.16 µM
[30] = second compound 1 µM, first compound 10 µM
[31] = second compound 3.16 µM, first compound 0.0316 µM
[32] = second compound 3.16 µM, first compound 0.1 µM
[33] = second compound 3.16 µM, first compound 0.316 µM
[34] = second compound 3.16 µM, first compound 1 µM
[35] = second compound 3.16 µM, first compound 3.16 µM
[36] = second compound 3.16 µM, first compound 10 µM
[37] = second compound 10 µM, first compound 0.0316 µM
[38] = second compound 10 µM, first compound 0.1 µM
[39] = second compound 10 µM, first compound 0.316 µM
[40] = second compound 10 µM, first compound 1 µM
[41] = second compound 10 µM, first compound 3.16 µM
[42] = second compound 10 µM, first compound 10 µM
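Note: spheroids exposed to drugs for seven days before readout.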
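Throughout, for viability, T/C: 100% = DMSO vehicle control wells.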

COC1C=CCC(C)C(C)S(=O)(=O)NC(=O)c2ccc3c(c2)N(CC2CCC21)CC1(CCCc2cc(Cl)ccc21)CO3 (stereo not drawn)
viability, T/C (compound 0.0316 µM): 96% and 134% | viability, T/C (compound 0.1 µM): 105% and 90.2% | viability, T/C (compound 0.316 µM): 111% and 128% | viability, T/C (compound 1 µM): 103% and 137% | viability, T/C (compound 3.16 µM): 119% and 191% | viability, T/C (compound 10 µM): 6.05% and 30.3% | IC50 (curve of compound): 6060 nM and 8070 nM

CC(C)CC(NC(=O)C(Cc1ccccc1)NC(=O)c1cnccn1)B(O)O (stereo not drawn) + CN1CCN(c2cc(C(=O)Nc3cc4cc(-c5cnn(C)c5)ccc4cn3)ccn2)CC1
IC50 [1]: < 0.949 nM | IC50 [2]: < 0.949 nM | IC50 [3]: < 0.949 nM | IC50 [4]: < 0.949 nM | IC50 [5]: < 0.949 nM | IC50 [6]: < 0.949 nM | viability, T/C (second compound 0.0316 µM, first compound 0.000949 µM): 2.28% | viability, T/C (second compound 0.0316 µM, first compound 0.003 µM): 0.31% | viability, T/C (second compound 0.0316 µM, first compound 0.00949 µM): 0.27% | viability, T/C (second compound 0.0316 µM, first compound 0.03 µM): 0.43% | viability, T/C (second compound 0.0316 µM, first compound 0.0949 µM): 0.41% | viability, T/C (second compound 0.0316 µM, first compound 0.3 µM): 0.27% | viability, T/C (second compound 0.1 µM, first compound 0.000949 µM): 2.61% | viability, T/C (second compound 0.1 µM, first compound 0.003 µM): 0.37% | viability, T/C (second compound 0.1 µM, first compound 0.00949 µM): 0.29% | viability, T/C (second compound 0.1 µM, first compound 0.03 µM): 0.43% | viability, T/C (second compound 0.1 µM, first compound 0.0949 µM): 0.35% | viability, T/C (second compound 0.1 µM, first compound 0.3 µM): 0.28% | viability, T/C (second compound 0.316 µM, first compound 0.000949 µM): 0.57% | viability, T/C (second compound 0.316 µM, first compound 0.003 µM): 0.22% | viability, T/C (second compound 0.316 µM, first compound 0.00949 µM): 0.27% | viability, T/C (second compound 0.316 µM, first compound 0.03 µM): 0.27% | viability, T/C (second compound 0.316 µM, first compound 0.0949 µM): 1.06% | viability, T/C (second compound 0.316 µM, first compound 0.3 µM): 0.19% | viability, T/C (second compound 1 µM, first compound 0.000949 µM): 0.21% | viability, T/C (second compound 1 µM, first compound 0.003 µM): 0.19% | viability, T/C (second compound 1 µM, first compound 0.00949 µM): 0.12% | viability, T/C (second compound 1 µM, first compound 0.03 µM): 0.19% | viability, T/C (second compound 1 µM, first compound 0.0949 µM): 0.16% | viability, T/C (second compound 1 µM, first compound 0.3 µM): 0.16% | viability, T/C (second compound 3.16 µM, first compound 0.000949 µM): 0.36% | viability, T/C (second compound 3.16 µM, first compound 0.003 µM): 0.15% | viability, T/C (second compound 3.16 µM, first compound 0.00949 µM): 1.95% | viability, T/C (second compound 3.16 µM, first compound 0.03 µM): 0.11% | viability, T/C (second compound 3.16 µM, first compound 0.0949 µM): 0.78% | viability, T/C (second compound 3.16 µM, first compound 0.3 µM): 0.11% | viability, T/C (second compound 10 µM, first compound 0.000949 µM): 0.29% | viability, T/C (second compound 10 µM, first compound 0.003 µM): 0.19% | viability, T/C (second compound 10 µM, first compound 0.00949 µM): 2.1% | viability, T/C (second compound 10 µM, first compound 0.03 µM): 0.2% | viability, T/C (second compound 10 µM, first compound 0.0949 µM): 0.22% | viability, T/C (second compound 10 µM, first compound 0.3 µM): 0.32%

CC1(C)CCC(CN2CCN(c3ccc(C(=O)NS(=O)(=O)c4ccc(NCC5CCOCC5)c([N+](=O)[O-])c4)c(Oc4cnc5[nH]ccc5c4)c3)CC2)=C(c2ccc(Cl)cc2)C1 + CNC(=O)c1ccc(Nc2nc(OC3CCCC3)c3c(-c4ccc5nc(C)oc5c4)c[nH]c3n2)c(OC)c1
IC50 [1]: 6590 nM | IC50 [2]: 4220 nM | IC50 [3]: < 31.6 nM | IC50 [4]: < 31.6 nM | IC50 [5]: < 31.6 nM | IC50 [6]: < 31.6 nM | viability, T/C [7]: 128% | viability, T/C [8]: 118% | viability, T/C [9]: 116% | viability, T/C [10]: 125% | viability, T/C [11]: 173% | viability, T/C [12]: 3.47% | viability, T/C [13]: 54.1% | viability, T/C [14]: 68.9% | viability, T/C [15]: 62.4% | viability, T/C [16]: 75.5% | viability, T/C [17]: 69.2% | viability, T/C [18]: 2.06% | viability, T/C [19]: 20.6% | viability, T/C [20]: 23.1% | viability, T/C [21]: 28.9% | viability, T/C [22]: 20.9% | viability, T/C [23]: 20.5% | viability, T/C [24]: 3.1% | viability, T/C [25]: 21.3% | viability, T/C [26]: 18.3% | viability, T/C [27]: 19.3% | viability, T/C [28]: 27.2% | viability, T/C [29]: 23.3% | viability, T/C [30]: 3.87% | viability, T/C [31]: 22.6% | viability, T/C [32]: 24.9% | viability, T/C [33]: 19.5% | viability, T/C [34]: 22.9% | viability, T/C [35]: 19.1% | viability, T/C [36]: 6.53% | viability, T/C [37]: 17.3% | viability, T/C [38]: 19.6% | viability, T/C [39]: 19.3% | viability, T/C [40]: 19.4% | viability, T/C [41]: 19.3% | viability, T/C [42]: 4.56%

CC1COCCN1c1cc(C2(S(C)(=N)=O)CC2)nc(-c2ccnc3[nH]ccc23)n1 (stereo not drawn) + CNC(=O)c1ccc(Nc2nc(OC3CCCC3)c3c(-c4ccc5nc(C)oc5c4)c[nH]c3n2)c(OC)c1
IC50 [1]: 2340 nM | IC50 [2]: 1070 nM | IC50 [3]: < 31.6 nM | IC50 [4]: < 31.6 nM | IC50 [5]: < 31.6 nM | IC50 [6]: < 31.6 nM | viability, T/C [7]: 101% | viability, T/C [8]: 95.5% | viability, T/C [9]: 103% | viability, T/C [10]: 111% | viability, T/C [11]: 31.3% | viability, T/C [12]: 11.1% | viability, T/C [13]: 61.3% | viability, T/C [14]: 65% | viability, T/C [15]: 57.3% | viability, T/C [16]: 52.4% | viability, T/C [17]: 18.6% | viability, T/C [18]: 11.6% | viability, T/C [19]: 23.3% | viability, T/C [20]: 22% | viability, T/C [21]: 23.2% | viability, T/C [22]: 15.2% | viability, T/C [23]: 11.8% | viability, T/C [24]: 9.36% | viability, T/C [25]: 22.3% | viability, T/C [26]: 20.9% | viability, T/C [27]: 24.7% | viability, T/C [28]: 17.8% | viability, T/C [29]: 12.2% | viability, T/C [30]: 6.79% | viability, T/C [31]: 22.9% | viability, T/C [32]: 20.1% | viability, T/C [33]: 18.5% | viability, T/C [34]: 20% | viability, T/C [35]: 10.8% | viability, T/C [36]: 6.49% | viability, T/C [37]: 18.1% | viability, T/C [38]: 18.4% | viability, T/C [39]: 21% | viability, T/C [40]: 20.2% | viability, T/C [41]: 13.6% | viability, T/C [42]: 7.4%
